{"source": "BindingDB's records for doi:10.1111/cbdd.12579", "about": "(University of Karachi, 2015)", "key": {"Acetylcholinesterase": {"target": "Acetylcholinesterase (Electrophorus electricus, UniProt O42275)", "sequence (O42275 whole entry)": "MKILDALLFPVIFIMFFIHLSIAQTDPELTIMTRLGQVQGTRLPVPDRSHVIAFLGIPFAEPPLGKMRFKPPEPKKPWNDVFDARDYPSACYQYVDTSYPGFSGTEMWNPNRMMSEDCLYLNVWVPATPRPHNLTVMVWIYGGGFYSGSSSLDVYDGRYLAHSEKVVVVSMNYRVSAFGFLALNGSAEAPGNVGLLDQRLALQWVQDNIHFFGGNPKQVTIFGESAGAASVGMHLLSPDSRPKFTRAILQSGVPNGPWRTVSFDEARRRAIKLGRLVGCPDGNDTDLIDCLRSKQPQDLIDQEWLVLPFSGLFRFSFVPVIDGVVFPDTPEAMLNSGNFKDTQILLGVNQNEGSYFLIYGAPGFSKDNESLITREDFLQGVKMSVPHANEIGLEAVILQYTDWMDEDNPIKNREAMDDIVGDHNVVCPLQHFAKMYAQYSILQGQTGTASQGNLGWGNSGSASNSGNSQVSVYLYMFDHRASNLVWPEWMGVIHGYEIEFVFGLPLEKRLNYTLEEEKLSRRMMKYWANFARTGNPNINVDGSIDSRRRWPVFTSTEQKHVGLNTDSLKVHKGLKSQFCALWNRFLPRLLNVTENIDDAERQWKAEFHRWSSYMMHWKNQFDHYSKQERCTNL", "experiment": "AChE and BChE Inhibition Assay", "details": "pH 8; 25 °C", "protocol": "(§1) A […] well plate was used for screening purpose. Each pyridopyrazine derivative was first dissolved in dimethyl sulfoxide to prepare the stock solutions. The synthetic compounds were then screened against electric eel acetylcholinesterase (eeAChE) and equine butyrylcholinesterase (BChE) at different concentrations (1 µM or 10 µM) of dimethyl sulfoxide as negative control in primarily screening. […] The reaction mixture which comprised of buffer solution (20 µL), synthetic compound (10 µL) and enzyme (0.5 and 3.4 U/mg, eeAChE or equine BChE) was primarily incubated for ten minutes at room temperature (25 C). Subsequently to the mixture, once the preincubation over, the acetylthiocholine iodide or butyrylthiocholine chloride (10 μL of 10 mM) was added and incubated it further for"}, "[1]": {"target": "Carboxylic ester hydrolase (Equus caballus, UniProt Q9N1N9)", "sequence (Q9N1N9 whole entry)": "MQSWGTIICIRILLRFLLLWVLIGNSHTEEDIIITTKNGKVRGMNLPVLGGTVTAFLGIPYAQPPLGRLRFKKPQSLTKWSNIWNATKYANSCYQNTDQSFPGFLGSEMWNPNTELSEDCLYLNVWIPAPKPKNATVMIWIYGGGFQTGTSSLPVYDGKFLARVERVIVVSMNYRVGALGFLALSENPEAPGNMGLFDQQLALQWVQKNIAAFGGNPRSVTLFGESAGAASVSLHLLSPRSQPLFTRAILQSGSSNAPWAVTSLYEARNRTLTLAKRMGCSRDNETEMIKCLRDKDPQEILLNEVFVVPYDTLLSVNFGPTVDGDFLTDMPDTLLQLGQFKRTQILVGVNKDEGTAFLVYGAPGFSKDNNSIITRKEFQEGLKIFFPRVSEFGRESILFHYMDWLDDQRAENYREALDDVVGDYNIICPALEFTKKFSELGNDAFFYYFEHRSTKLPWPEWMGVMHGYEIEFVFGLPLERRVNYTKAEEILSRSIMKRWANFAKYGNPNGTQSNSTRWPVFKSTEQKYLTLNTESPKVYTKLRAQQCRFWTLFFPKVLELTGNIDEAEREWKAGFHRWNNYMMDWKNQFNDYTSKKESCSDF", "experiment": "AChE and BChE Inhibition Assay", "details": "pH 8; 25 °C", "protocol": "as §1"}}}
{"smiles": "Brc1ccccc1-c1cnc2cccnc2n1", "note": "[3-(2′-Bromophenyl)pyrido[2,3-b]pyrazine (6k)]", "values": [{"measurement": "IC50", "setting": "Acetylcholinesterase", "result": 4.03, "unit": "µM"}, {"measurement": "IC50", "setting": "[1]", "result": 7.45, "unit": "µM"}]}
{"smiles": "Clc1ccccc1-c1cnc2cccnc2n1", "note": "[3-(2′-Chlorophenyl)pyrido[2,3-b]pyrazine (6i)]", "values": [{"measurement": "IC50", "setting": "Acetylcholinesterase", "result": 2.52, "unit": "µM"}, {"measurement": "IC50", "setting": "[1]", "result": 9.67, "unit": "µM"}]}
{"smiles": "Cc1ccccc1-c1cnc2cccnc2n1", "note": "[3-(2′-Methylphenyl)pyrido[2,3-b]pyrazine (6d)]", "values": [{"measurement": "IC50", "setting": "Acetylcholinesterase", "result": 5.39, "unit": "µM"}, {"measurement": "IC50", "setting": "[1]", "result": 21.2, "unit": "µM"}]}
{"smiles": "O=[N+]([O-])c1ccccc1-c1cnc2cccnc2n1", "note": "[3-(2′-Nitrophenyl)pyrido[2,3-b]pyrazine (6o)]", "values": [{"measurement": "IC50", "setting": "Acetylcholinesterase", "result": 3, "unit": "µM"}, {"measurement": "IC50", "setting": "[1]", "result": 22.3, "unit": "µM"}]}
{"smiles": "Brc1cccc(-c2cnc3cccnc3n2)c1", "note": "[3-(3′-Bromophenyl)pyrido[2,3-b]pyrazine (6j)]", "values": [{"measurement": "IC50", "setting": "Acetylcholinesterase", "result": 3.12, "unit": "µM"}, {"measurement": "IC50", "setting": "[1]", "result": 11.5, "unit": "µM"}]}
{"smiles": "Clc1cccc(-c2cnc3cccnc3n2)c1", "note": "[3-(3′-Chlorophenyl)pyrido[2,3-b]pyrazine (6h)]", "values": [{"measurement": "IC50", "setting": "Acetylcholinesterase", "result": 1.26, "unit": "µM"}, {"measurement": "IC50", "setting": "[1]", "result": 12.1, "unit": "µM"}]}
{"smiles": "Fc1cccc(-c2cnc3cccnc3n2)c1", "note": "[3-(3′-Fluorophenyl)pyrido[2,3-b]pyrazine (6f)]", "values": [{"measurement": "IC50", "setting": "Acetylcholinesterase", "result": 0.899, "unit": "µM"}, {"measurement": "IC50", "setting": "[1]", "result": 79.8, "unit": "µM"}]}
{"smiles": "Cc1cccc(-c2cnc3cccnc3n2)c1", "note": "[3-(3′-Methylphenyl)pyrido[2,3-b]pyrazine (6c)]", "values": [{"measurement": "IC50", "setting": "Acetylcholinesterase", "result": 5.88, "unit": "µM"}, {"measurement": "IC50", "setting": "[1]", "result": 0.583, "unit": "µM"}]}
{"smiles": "O=[N+]([O-])c1cccc(-c2cnc3cccnc3n2)c1", "note": "[3-(3′-Nitrophenyl)pyrido[2,3-b]pyrazine (6n)]", "values": [{"measurement": "IC50", "setting": "Acetylcholinesterase", "result": 0.466, "unit": "µM"}, {"measurement": "IC50", "setting": "[1]", "result": 1.89, "unit": "µM"}]}
{"smiles": "c1cnc2nc(-c3ccc(N4CCCCC4)cc3)cnc2c1", "note": "[3-(4′-(Piperidin-1-yl)phenyl)pyrido[2,3-b]pyrazine (6p)]", "values": [{"measurement": "IC50", "setting": "Acetylcholinesterase", "result": 4.75, "unit": "µM"}, {"measurement": "IC50", "setting": "[1]", "result": 3.91, "unit": "µM"}]}
{"smiles": "Clc1ccc(-c2cnc3cccnc3n2)cc1", "note": "[3-(4′-Chlorophenyl)pyrido[2,3-b]pyrazine (6g)]", "values": [{"measurement": "IC50", "setting": "Acetylcholinesterase", "result": 2.59, "unit": "µM"}, {"measurement": "IC50", "setting": "[1]", "result": 2.63, "unit": "µM"}]}
{"smiles": "Fc1ccc(-c2cnc3cccnc3n2)cc1", "note": "[3-(4′-Fluorophenyl)pyrido[2,3-b]pyrazine (6e)]", "values": [{"measurement": "IC50", "setting": "Acetylcholinesterase", "result": 2.45, "unit": "µM"}, {"measurement": "IC50", "setting": "[1]", "result": 11.2, "unit": "µM"}]}
{"smiles": "Ic1ccc(-c2cnc3cccnc3n2)cc1", "note": "[3-(4′-Iodophenyl)pyrido[2,3-b]pyrazine (6l)]", "values": [{"measurement": "IC50", "setting": "Acetylcholinesterase", "result": 4.05, "unit": "µM"}, {"measurement": "IC50", "setting": "[1]", "result": 31.2, "unit": "µM"}]}
{"smiles": "Cc1ccc(-c2cnc3cccnc3n2)cc1", "note": "[3-(4′-Methylphenyl)pyrido[2,3-b]pyrazine (6b)]", "values": [{"measurement": "IC50", "setting": "Acetylcholinesterase", "result": 3.06, "unit": "µM"}, {"measurement": "IC50", "setting": "[1]", "result": 6.44, "unit": "µM"}]}
{"smiles": "O=[N+]([O-])c1ccc(-c2cnc3cccnc3n2)cc1", "note": "[3-(4′-Nitrophenyl)pyrido[2,3-b]pyrazine (6m)]", "values": [{"measurement": "IC50", "setting": "Acetylcholinesterase", "result": 1.97, "unit": "µM"}, {"measurement": "IC50", "setting": "[1]", "result": 20.8, "unit": "µM"}]}
{"smiles": "c1ccc(-c2cnc3cccnc3n2)cc1", "note": "[3-Phenylpyrido[2,3-b]pyrazine (6a)]", "values": [{"measurement": "IC50", "setting": "Acetylcholinesterase", "result": 9.65, "unit": "µM"}, {"measurement": "IC50", "setting": "[1]", "result": 35.4, "unit": "µM"}]}
{"smiles": "c1cnc2nc3c(nc2c1)CCCC3", "note": "[6,7,8,9-tetrahydropyrido[2,3-b]quinoxaline (6q)]", "values": [{"measurement": "IC50", "setting": "Acetylcholinesterase", "result": 5.78, "unit": "µM"}, {"measurement": "IC50", "setting": "[1]", "result": 10.9, "unit": "µM"}]}
{"smiles": "CN(C)C(=O)Oc1cccc([N+](C)(C)C)c1", "note": "[m-Trimethylammoniumphenyldimethylcarbamate]", "values": [{"measurement": "IC50", "setting": "[1]", "result": 49.6, "unit": "µM"}]}
